Numbered stars: 1 amine (or outer) side, 2 acyl side, 3 side chain; on linkers, the order of the positions; unused ones are H or OH. Square brackets hold non-standard residues; d marks the D form. Side chains are listed from the residue outwards. Peptide text beside a SMILES is read from it. * marks the point of attachment. Undecanoyl(11-OPh(4-COOH)) = O=C(O)c1ccc(OCCCCCCCCCCC(=O)*)cc1; γGlu = O=C(O)[C@H](CCC(=O)[*:2])N[*:1]; εLys = N[C@@H](CCCCN[*:1])C(=O)[*:2]; Aib = CC(C)(N)C(=O)O
Columns and labels:
[1] = Pharmacokinetic (PK) study in minipig; details: male, Göttingen, in vivo, iv
human GLP-1 receptor [2] = molecular target: T1, human GLP-1 receptor (Homo sapiens, UniProt P43220); assay: In vitro potency (CRE luciferase; whole cells); type: cell-based; set-up: EC50/pM (ratio 1% HSA/0% HSA): unit not given here; details: for EC50/pM (ratio 1% HSA/0% HSA): ratio of EC50 at 1% HSA to EC50 at 0% HSA; for EC50: BHK cells
T1 construct: expressed in transfected cells; host or cells: BHK cells, clone FCW467-12A/KZ10-1 (parent line BHKTS13), further transfected with CRE luciferase
In short: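 Stably transfected BHK cells carrying human GLP-1R and a CRE–firefly luciferase reporter, 5×10^3 cells/well in assay medium, run with 0% or 1% HSA in assay buffer.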

[3] = Pharmacokinetic (PK) study in rat; details: male, Sprague Dawley, in vivo, iv, 6 nmol/kg
Description: The purpose of this Example is to investigate half-life in vivo in rat.
In vivo pharmacokinetic studies in rats were performed with the GLP-1 derivatives of a number of the Example compounds, as described in the following.
Male Sprague Dawley rats of same age with a body weight of approximately 400 g were obtained from Taconic (Denmark) and assigned to the treatments by simple randomisation on body weight, approximately 4 rats per group.
The GLP-1 derivatives (approximately 6 nmol/ml) were dissolved in 50 mM sodium phosphate, 145 mM sodium chloride, 0.05% tween 80, pH 7.4. Intravenous injections (1.0 ml/kg) of the compounds were given with a syringe in the tail vein of conscious rats. Blood was sampled from vena sublingualis for 5 days post dosing. Blood samples (200 μl) were collected in EDTA buffer (8 mM) and then centrifuged at 4° C. and 10000 G for 5 minutes. Plasma samples were kept at −20° C. until analyzed for plasma concentration of the respective GLP-1 compound.
The donor beads were coated with streptavidin, while acceptor beads were conjugated with a monoclonal antibody recognising a mid-/C-terminal epitope of the peptide. Another monoclonal antibody, specific for the N-terminus, was biotinylated. The three reactants were combined with the analyte and formed a two-sited immuno-complex. Illumination of the complex released singlet oxygen atoms from the donor beads, which were channeled into the acceptor beads and triggered chemiluminescence which was measured in an Envision plate reader. The amount of light was proportional to the concentration of the compound.
Plasma concentration-time profiles were analyzed using Phoenix WinNonLin ver. 6.2, Pharsight Inc., Mountain View, Calif., USA), and the half-life (T1/2) calculated using individual plasma concentration-time profiles from each animal.

[4] = tested on: Landrace Yorkshire Duroc (LYD) pigs; assay: Pharmacodynamic (PD) study in pigs, food intake; type: in vivo, pig; details: single s.c. dose 3.0 nmol/kg
Description: The purpose of this experiment was to investigate the effect of a couple of Example compounds on food intake in pigs. This was done in a pharmacodynamic (PD) study as described below, in which food intake was measured from 1 to 4 days after administration of a single dose of the GLP-1 derivative, as compared to a vehicle-treated control group.
Female Landrace Yorkshire Duroc (LYD) pigs, approximately 3 months of age, weighing approximately 30-35 kg were used (n=3-4 per group). The animals were housed in a group for approximately 1 week during acclimatisation to the animal facilities. During the experimental period the animals were placed in individual pens at least 2 days before dosing and during the entire experiment for measurement of individual food intake. The animals were fed ad libitum with pig fodder (Svinefoder Danish Top) at all times both during the acclimatisation and the experimental period. Food intake was monitored on line by logging the weight of fodder every 15 minutes. The system used was Mpigwin (Ellegaard Systems, Faaborg, Denmark).
The phosphate buffer serves as vehicle. Animals are dosed with a single subcutaneous dose of the GLP-1 derivative or vehicle (dose volume 0.025 ml/kg) on the morning of day 1, and food intake is measured for 1 day after dosing. On the last day of each study, 1-4 days after dosing, a blood sample for measurement of plasma exposure of the GLP-1 derivative is taken from the heart in anaesthetised animals. The animals are thereafter euthanised with an intra-cardial overdose of pentobarbitone.
Food intake is calculated as mean±SEM food intake in 24 h intervals (0-24 h, 24-48 h, and 48-72 h). In Table 6 below the food intake is indicated as percentage of the food intake of the vehicle group in the same time interval (dosage 3.0 nmol/kg).
Statistical comparisons of the food intake in the 24 h intervals in the vehicle vs. GLP-1 derivative group are done using two-way-ANOVA repeated measures, followed by Bonferroni post-test.

human GLP-1 receptor [5] = molecular target: T1, human GLP-1 receptor; assay: GLP-1 receptor binding (SPA, displacement of 125I-GLP-1)
In short: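 Membranes from a stably transfected hamster cell line, 5-10 ug protein/sample, with WGA SPA beads and [125I]-GLP-1(7-36)NH2 at 0.06 nM final. Incubated 120 min at 30 °C with shaking, then counted.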

[6] = In vitro potency (CRE luciferase) EC50 (1% HSA), 1% HSA
[7] = Receptor binding affinity IC50 (high HSA), 2.0% HSA (high albumin)
[8] = In vitro potency (CRE luciferase) EC50 (0% HSA), 0% HSA
[9] = Receptor binding affinity IC50 (low HSA), 0.001% HSA (low albumin)

T1 sequence (P43220 24-463): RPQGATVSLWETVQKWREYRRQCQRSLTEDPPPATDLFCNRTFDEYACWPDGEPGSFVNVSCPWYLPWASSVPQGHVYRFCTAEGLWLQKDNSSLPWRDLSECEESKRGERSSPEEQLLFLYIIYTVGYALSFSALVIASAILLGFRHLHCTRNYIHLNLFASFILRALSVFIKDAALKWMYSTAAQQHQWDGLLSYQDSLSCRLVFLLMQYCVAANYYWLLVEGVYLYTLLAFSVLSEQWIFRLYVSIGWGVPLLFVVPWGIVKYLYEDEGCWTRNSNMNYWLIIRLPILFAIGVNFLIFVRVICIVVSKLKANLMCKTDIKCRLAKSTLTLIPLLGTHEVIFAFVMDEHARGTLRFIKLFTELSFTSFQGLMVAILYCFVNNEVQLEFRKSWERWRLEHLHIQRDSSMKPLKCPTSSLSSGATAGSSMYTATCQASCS

Compound	half-life [1] [days]	EC50/pM (ratio 1% HSA/0% HSA) (human GLP-1 receptor [2])	half-life [3] [min]	EC50 (human GLP-1 receptor [2]; [6]) [nM]	PD in pig, food intake (% of vehicle) for hours 0-24 ([4]; 0-24 h)	PD in pig, food intake (% of vehicle) for hours 24-48 ([4]; 24-48 h)	IC50 (human GLP-1 receptor [5]; [7]) [nM]	EC50 (human GLP-1 receptor [2]; [8]) [nM]	IC50 (human GLP-1 receptor [5]; [9]) [nM]
CC[C@H](C)[C@H](NC(=O)[C@H](Cc1ccccc1)NC(=O)[C@H](CCC(=O)O)NC(=O)[C@H](CCCCNC(=O)[C@@H](N)CCCCNC(=O)[C@@H](N)CCCCNC(=O)CC[C@H](NC(=O)CCCCCCCCCCCOc1ccc(C(=O)O)cc1)C(=O)O)NC(=O)[C@H](C)NC(=O)[C@H](C)NC(=O)[C@H](CCC(N)=O)NC(=O)CNC(=O)[C@H](CCC(=O)O)NC(=O)[C@H](CC(C)C)NC(=O)[C@H](Cc1ccc(O)cc1)NC(=O)[C@H](CO)NC(=O)[C@H](CO)NC(=O)[C@@H](NC(=O)[C@H](CC(=O)O)NC(=O)[C@H](CO)NC(=O)[C@@H](NC(=O)[C@H](Cc1ccccc1)NC(=O)[C@@H](NC(=O)CNC(=O)[C@H](CCC(=O)O)NC(=O)C(C)(C)NC(=O)[C@@H](N)Cc1c[nH]cn1)[C@@H](C)O)[C@@H](C)O)C(C)C)C(=O)N[C@@H](C)C(=O)N[C@@H](Cc1c[nH]c2ccccc12)C(=O)N[C@@H](CC(C)C)C(=O)N[C@H](C(=O)N[C@@H](CCC(N)=O)C(=O)NCC(=O)N[C@@H](CCCNC(=N)N)C(=O)N[C@@H](CCCCNC(=O)[C@@H](N)CCCCNC(=O)[C@@H](N)CCCCNC(=O)CC[C@H](NC(=O)CCCCCCCCCCCOc1ccc(C(=O)O)cc1)C(=O)O)C(=O)O)C(C)C [Example 9, N^ε26-[(2S)-2-amino-6-[[(2S)-2-amino-6-[[(4S)-4-carboxy-4-[12-(4-carboxyphenoxy)dodecanoylamino]butanoyl]amino]hexanoyl]amino]hexanoyl], N^ε37-[(2S)-2-amino-6-[[(2S)-2-amino-6-[[(4S)-4-carboxy-4-[12-(4-carboxyphenoxy)dodecanoylamino]butanoyl]amino]hexanoyl]amino]hexanoyl]-[Aib^8,Gln^34,Lys^37]-GLP-1-(7-37)-peptide]	3	72	1200						
CC[C@H](C)[C@H](NC(=O)[C@H](Cc1ccccc1)NC(=O)[C@H](CCC(=O)O)NC(=O)[C@H](CCCCNC(=O)[C@@H](N)CCCCNC(=O)[C@H](CO)NC(=O)CNC(=O)[C@H](CO)NC(=O)CC[C@H](NC(=O)CCCCCCCCCCCOc1ccc(C(=O)O)cc1)C(=O)O)NC(=O)[C@H](C)NC(=O)[C@H](C)NC(=O)[C@H](CCC(N)=O)NC(=O)CNC(=O)[C@H](CCC(=O)O)NC(=O)[C@H](CC(C)C)NC(=O)[C@H](Cc1ccc(O)cc1)NC(=O)[C@H](CO)NC(=O)[C@H](CO)NC(=O)[C@@H](NC(=O)[C@H](CC(=O)O)NC(=O)[C@H](CO)NC(=O)[C@@H](NC(=O)[C@H](Cc1ccccc1)NC(=O)[C@@H](NC(=O)CNC(=O)[C@H](CCC(=O)O)NC(=O)C(C)(C)NC(=O)[C@@H](N)Cc1c[nH]cn1)[C@@H](C)O)[C@@H](C)O)C(C)C)C(=O)N[C@@H](C)C(=O)N[C@@H](Cc1c[nH]c2ccccc12)C(=O)N[C@@H](CC(C)C)C(=O)N[C@H](C(=O)N[C@@H](CCCNC(=N)N)C(=O)NCC(=O)N[C@@H](CCCNC(=N)N)C(=O)N[C@@H](CCCCNC(=O)[C@@H](N)CCCCNC(=O)[C@H](CO)NC(=O)CNC(=O)[C@H](CO)NC(=O)CC[C@H](NC(=O)CCCCCCCCCCCOc1ccc(C(=O)O)cc1)C(=O)O)C(=O)O)C(C)C [Example 24]	5.12	37		0.126	73 % of vehicle	73 % of vehicle	136		
CC[C@H](C)[C@H](NC(=O)[C@H](Cc1ccccc1)NC(=O)[C@H](CCC(=O)O)NC(=O)[C@H](CCCCNC(=O)[C@@H](N)CCCCNC(=O)[C@@H](N)CCCCNC(=O)CC[C@H](NC(=O)CC[C@H](NC(=O)CC[C@H](NC(=O)CCCCCCCCCCOc1ccc(C(=O)O)cc1)C(=O)O)C(=O)O)C(=O)O)NC(=O)[C@H](C)NC(=O)[C@H](C)NC(=O)[C@H](CCC(N)=O)NC(=O)CNC(=O)[C@H](CCC(=O)O)NC(=O)[C@H](CC(C)C)NC(=O)[C@H](Cc1ccc(O)cc1)NC(=O)[C@H](CO)NC(=O)[C@H](CO)NC(=O)[C@@H](NC(=O)[C@H](CC(=O)O)NC(=O)[C@H](CO)NC(=O)[C@@H](NC(=O)[C@H](Cc1ccccc1)NC(=O)[C@@H](NC(=O)CNC(=O)[C@H](CCC(=O)O)NC(=O)C(C)(C)NC(=O)[C@@H](N)Cc1c[nH]cn1)[C@@H](C)O)[C@@H](C)O)C(C)C)C(=O)N[C@@H](C)C(=O)N[C@@H](Cc1c[nH]c2ccccc12)C(=O)N[C@@H](CC(C)C)C(=O)N[C@H](C(=O)N[C@@H](CCCNC(=N)N)C(=O)NCC(=O)N[C@@H](CCCNC(=N)N)C(=O)N[C@@H](CCCCNC(=O)[C@@H](N)CCCCNC(=O)[C@@H](N)CCCCNC(=O)CC[C@H](NC(=O)CC[C@H](NC(=O)CC[C@H](NC(=O)CCCCCCCCCCOc1ccc(C(=O)O)cc1)C(=O)O)C(=O)O)C(=O)O)C(=O)O)C(C)C [Example 30]		17	960	0.093			203	0.0054	0.42
CC[C@H](C)[C@H](NC(=O)[C@H](Cc1ccccc1)NC(=O)[C@H](CCC(=O)O)NC(=O)[C@H](CCCCNC(=O)[C@@H](N)CCCCNC(=O)[C@@H](N)CCCCNC(=O)CC[C@H](NC(=O)CCCCCCCCCCOc1ccc(C(=O)O)cc1)C(=O)O)NC(=O)[C@H](C)NC(=O)[C@H](C)NC(=O)[C@H](CCC(N)=O)NC(=O)[C@H](CCC(=O)O)NC(=O)[C@H](CCC(=O)O)NC(=O)[C@H](CC(C)C)NC(=O)[C@H](Cc1ccc(O)cc1)NC(=O)[C@H](CO)NC(=O)[C@H](CO)NC(=O)[C@@H](NC(=O)[C@H](CC(=O)O)NC(=O)[C@H](CO)NC(=O)[C@@H](NC(=O)[C@H](Cc1ccccc1)NC(=O)[C@@H](NC(=O)CNC(=O)[C@H](CCC(=O)O)NC(=O)C(C)(C)NC(=O)[C@@H](N)Cc1c[nH]cn1)[C@@H](C)O)[C@@H](C)O)C(C)C)C(=O)N[C@@H](C)C(=O)N[C@@H](Cc1c[nH]c2ccccc12)C(=O)N[C@@H](CC(C)C)C(=O)N[C@H](C(=O)N[C@@H](CCC(N)=O)C(=O)NCC(=O)N[C@@H](CCCNC(=N)N)C(=O)N[C@@H](CCCCNC(=O)[C@@H](N)CCCCNC(=O)[C@@H](N)CCCCNC(=O)CC[C@H](NC(=O)CCCCCCCCCCOc1ccc(C(=O)O)cc1)C(=O)O)C(=O)O)C(C)C [Example 36, N^ε26-[(2S)-2-amino-6-[[(2S)-2-amino-6-[[(4S)-4-carboxy-4-[11-(4-carboxyphenoxy)undecanoylamino]butanoyl]amino]hexanoyl]amino]hexanoyl], N^ε37-[(2S)-2-amino-6-[[(2S)-2-amino-6-[[(4S)-4-carboxy-4-[11-(4-carboxyphenoxy)undecanoylamino]butanoyl]amino]hexanoyl]amino]hexanoyl]-[Aib^8,Glu^22,Gln^34,Lys^37]-GLP-1-(7-37)-peptide] (H-H[Aib]EGTFTSDVSSYLEEQAAK([εLys-εLys-γGlu-Undecanoyl(11-OPh(4-COOH))])EFIAWLVQGRK([εLys-εLys-γGlu-Undecanoyl(11-OPh(4-COOH))])-OH; N-terminus and C-terminus assumed)	2.88	14		0.065			25	0.0049	0.1

Reference: patent publication US10604554B2, “Double-acylated GLP-1 derivatives” (Novo Nordisk A/S, priority 2012, dated 2020)
